Assays:
A431 cells = experiment: Proliferation assay on the squamous carcinoma cell line A431 cells (C5); format: cell-based; conditions: Homo sapiens, A-431; 72 hours with compounds; MTT cell viability assay; read-out: A431 cell (C5): pIC50 (converted)
Method: The squamous carcinoma cell line (A431) was used in a cell proliferation assay, to assess the inhibitory effect of the compounds in whole cells.
In a first step the A431 cells were incubated for 24 hours in the presence of 10% FCS serum. In the second step the cells were incubated for 72 hours with the compounds to be tested at a final concentration of 100 ng/ml. The effect of the compounds on the cell proliferation was finally assessed in a standard MTT cell viability assay.

EGFR = EGFR (Homo sapiens, UniProt P00533); experiment: In vitro inhibition of EGFR, Flash Plate or glass-fiber filter technology (C2); format: biochemical; parameters: 0.5 μg EGFR-kinase domain/well; conditions: EGFR-kinase domain, 5.0 μM unlabeled ATP, read-out: Kinase activity.(C2): pIC50 (converted)
EGFR, sequence (P00533 712-979 limits assumed): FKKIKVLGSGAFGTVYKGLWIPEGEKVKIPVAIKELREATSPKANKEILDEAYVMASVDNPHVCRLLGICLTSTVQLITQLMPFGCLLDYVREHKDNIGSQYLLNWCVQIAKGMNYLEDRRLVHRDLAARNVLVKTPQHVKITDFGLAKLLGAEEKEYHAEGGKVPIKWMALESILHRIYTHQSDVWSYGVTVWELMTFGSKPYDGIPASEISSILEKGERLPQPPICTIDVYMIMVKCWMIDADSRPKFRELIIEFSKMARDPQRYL
Method in brief: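 Two radiometric formats were used, each with 5.0 μM unlabeled ATP, [33P]ATP, 0.5 μg EGFR kinase domain and compounds from 1·10^−10 to 1·10^−6 M. Glass-fiber filter: 25° C for 10 min, pH 7.5, Mn2+/Mg2+, acid-stopped, phosphorimager read. Streptavidin Flash Plate: biotinylated poly(GT), pH 8.0, 30° C for 60 min.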

SKOV3 cells = experiment: Serum starved proliferation assay on the ovarian carcinoma SKOV3 cells (C3); format: cell-based; conditions: Homo sapiens, SK-OV-3, 72 h, EGF stimulated (100 ng/ml, 72 hours, serum free) or 72 hours with compounds; MTT cell viability assay; read-out: SKOV3 cell (C3): pIC50 (converted)
Method in brief: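 MTT viability read-out in SKOV3 cells after a 24 h pre-incubation in 10% FCS, in one of two formats. EGF-stimulated version: serum-free compound exposure followed by 100 ng/ml EGF (final) for 72 h at 37 °C, 5% CO2. Otherwise, compound alone for 72 h.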

Structure (SMILES)	IC50 (A431 cells) [nM]	IC50 (EGFR) [nM]	IC50 (SKOV3 cells) [nM]	melting point [°C]
COc1cc2ncnc3c2cc1OCCCCCN(C(=O)OC(C)(C)C)Cc1ccc(Br)cc1N3 [Compound 19, 4,6-ethanediylidenepyrimido[4,5-b][6,1,12]benzoxadiazacyclo-pentadecine-13(8H)-carboxylic acid, 17-bromo-9,10,11,12,14,19-hexahydro-20-methoxy-, 1,1-dimethylethyl ester]	> 3160	63.1	5010	
COc1cc2ncnc3c2cc1OCCCCCNCc1ccc(Br)cc1N3 [Compound 20, 4,6-ethanediylidenepyrimido[4,5-b][6,1,12]benzoxadiazacyclo-pentadecine, 17-bromo-8,9,10,11,12,13,14,19-octahydro-20-methoxy-]	1260	25.1	229	
COc1cc2ncnc3c2cc1OCCCCOCCc1ccc(Cl)cc1N3 [Compound 23, 4,6-ethanediylidene-13H-pyrimido[4,5-b][6,11,1]benzodioxaazacyclo-pentadecine, 17-chloro-8,9,10,11,14,19-hexahydro-20-methoxy-]	501	10	60.3	
COc1cc2ncnc3c2cc1OCCCCCCCCON=Cc1ccc(Cl)cc1N3 [Compound 24, 4,6-ethanediylidene-23H-pyrimido[4,5-b][6,15,1,16]benzo-dioxadiazacyclononadecine, 21-chloro-8,9,10,11,12,13,14,15-octahydro-24-methoxy-]	> 3160	20	3160	127.2 to 132.2
COc1cc2ncnc3c2cc1OCCCCCCCCOc1cccc(c1)N3 [Compound 25, 22H-4,6-ethanediylidene-21,17-methenopyrimido[5,4-d][1,12,6]dioxaazacycloeicosine, 8,9,10,11,12,13,14,15-octahydro-24-methoxy-]	> 3160	631	> 10000	
COc1cc2ncnc3c2cc1OCCCNC(=O)CCc1ccc(Cl)cc1N3 [Compound 26, 4,6-ethenopyrimido[4,5-b][6,1,10]benzoxadiazacyclopentadecin-12(13H)-one, 17-chloro-8,9,10,11,14,19-hexahydro-20-methoxy-]	2000	2.51	120	
COCCOc1cc2ncnc3c2cc1OCCCCCCOc1ccc(Br)cc1N3 [Compound 28, 4,6-ethanediylidene-19H-pyrimido[4,5-b][6,13,1]benzodioxaazacyclopentadecine, 17-bromo-8,9,10,11,12,13-hexahydro-20-(2-methoxyethoxy)-]	1580	25.1	1450	
COc1cc2ncnc3c2cc1OCCCCCN(C(=O)OC(C)(C)C)Cc1cc(F)c(Cl)cc1N3 [Compound 29, 4,6-ethanediylidenepyrimido[4,5-b][6,1,12]benzoxadiazacyclopentadecine-13(8H)-carboxylic acid, 17-chloro-16-fluoro-9,10,11,12,14,19-hexahydro-20-methoxy-, 1,1-dimethylethyl ester]	> 3160	794	> 10000	
COc1cc2ncnc3c2cc1OCCCCCNCc1cc(F)c(Cl)cc1N3 [Compound 30, 4,6-ethanediylidenepyrimido[4,5-b][6,1,12]benzoxadiazacyclopentadecine, 17-chloro-16-fluoro-8,9,10,11,12,13,14,19-octahydro-20-methoxy-]	> 1000	31.6	1020	
COc1cc2ncnc3c2cc1OCCN(CCN1CCOCC1)CCCOc1ccc(Cl)cc1N3 [Compound 33, 4,6-etheno-19H-pyrimido[5,4-k][1,8,5,13]benzodioxadiazacyclopentadecine, 17-chloro-8,9,10,11,12,13-hexahydro-20-methoxy-10-[2-(4-morpholinyl)ethyl]-]	1580	25.1	1740	
COc1cc2ncnc3c2cc1OCCCCCCOc1ccc(-c2ccccc2)cc1N3 [Compound 34, 4,6-ethanediylidene-19H-pyrimido[4,5-b][6,13,1]benzodioxaazacyclopentadecine, 8,9,10,11,12,13-hexahydro-20-methoxy-17-phenyl-]	> 3160	63.1	> 10000	

The remaining lines, values ahead:

IC50 (A431 cells) [nM]	IC50 (EGFR) [nM]	IC50 (SKOV3 cells) [nM]	melting point [°C]	Structure (SMILES)
> 3160	3980	> 10000		COc1cc2ncnc3c2cc1OCCCCCCOc1ccc(-c2cccc(C#N)c2)cc1N3 [Compound 35, benzonitrile, 3-(8,9,10,11,12,13-hexahydro-20-methoxy-4,6-ethanediylidene-19H-pyrimido[4,5-b][6,13,1]benzodioxaazacyclopentadecin-17-yl)-]
> 3160	15.8	166		COc1cc2ncnc3c2cc1OCCCCCCNC(=O)c1ccc(Cl)cc1N3 [Compound 36, 4,6-ethanediylidene-8H-pyrimido[4,5-b][6,1,13]benzoxadiazacyclohexadecin-15(20H)-one, 18-chloro-9,10,11,12,13,14-hexahydro-21-methoxy-]
> 3160	> 10000	> 10000		COc1cc2ncnc3c2cc1OCCCCCCOc1cc(Cl)ccc1N3 [Compound 37, 4,6-ethanediylidene-19H-pyrimido[4,5-b][6,13,1]benzodioxaazacyclopentadecine, 16-chloro-8,9,10,11,12,13-hexahydro-20-methoxy-]
1260	20	126		COc1cc2ncnc3c2cc1OCCCCCOCCc1ccc(Cl)cc1N3 [Compound 38, 4,6-ethanediylidene-8H,14H-pyrimido[4,5-b][6,12,1]benzodioxaazacyclohexadecine, 18-chloro-9,10,11,12,15,20-hexahydro-21-methoxy-]
1580	20	200		COc1cc2ncnc3c2cc1OCCOCCOCCc1ccc(Cl)cc1N3 [Compound 39, 4,6-ethanediylidene-14H-pyrimido[4,5-b][6,9,12,1]benzotrioxaazacyclohexadecine, 18-chloro-8,9,11,12,15,20-hexahydro-21-methoxy-]
631	31.6	50.1		COc1cc2ncnc3c2cc1OCCCC(=O)NCCCc1ccc(Cl)cc1N3 [Compound 40, 4,6-ethanediylidene-8H-pyrimido[4,5-b][6,1,11]benzoxadiazacyclohexadecin-11(12H)-one, 18-chloro-9,10,13,14,15,20-hexahydro-21-methoxy-]
	7.94	126	226.3 to 227.7	COc1cc2ncnc3c2cc1OCCCCNC(=O)C1CCCN1Cc1ccc(Cl)cc1N3 (stereo not shown) [Compound 100, 4,6-ethanediylidenepyrimido[4,5-b]pyrrolo[2,1-m][6,1,11,14]benzoxatriazacycloheptadecin-13(8H)-one, 21-chloro-9,10,11,12,13a, 14,15,16,18,23-decahydro-24-methoxy-]
	10	39.8	202.8 to 203.6	COc1cc2ncnc3c2cc1OCCCNCCN(C)Cc1ccc(Cl)cc1N3 [Compound 114, 4,6-ethanediylidene-8H-pyrimido[4,5-b][6,1,10,13]benzoxatriazacyclohexadecine, 18-chloro-9,10,11,12,13,14,15,20-octahydro-21-methoxy-14-methyl-]
	6.31	126	196.9 to 197.8	COc1cc2ncnc3c2cc1OCCCCNCCN(C)Cc1ccc(Cl)cc1N3 [Compound 115, 4,6-ethanediylidenepyrimido[4,5-b][6,1,11,14]benzoxatriazacycloheptadecine, 19-chloro-8,9,10,11,12,13,14,15,16,21-decahydro-22-methoxy-15-methyl-]
	200	63.1	195.8 to 196.6	COc1cc2ncnc3c2cc1OCCNCCN(C)Cc1ccc(Cl)cc1N3 [Compound 116, 4,6-ethanediylidenepyrimido[4,5-b][6,1,9,12]benzoxatriazacyclopentadecine, 17-chloro-8,9,10,11,12,13,14,19-octahydro-20-methoxy-13-methyl-]

From patent publication US8394786B2, “Quinazoline derivatives” (Janssen Pharmaceutica N.V., priority 2003, dated 2013)
